From publication PMC4658274 (The Analyst, 2015)

Molecular target: hERG potassium channel (Homo sapiens, UniProt Q12809)
Assay: radio-ligand competitive binding assay

hERG potassium channel, sequence (Q12809 whole entry): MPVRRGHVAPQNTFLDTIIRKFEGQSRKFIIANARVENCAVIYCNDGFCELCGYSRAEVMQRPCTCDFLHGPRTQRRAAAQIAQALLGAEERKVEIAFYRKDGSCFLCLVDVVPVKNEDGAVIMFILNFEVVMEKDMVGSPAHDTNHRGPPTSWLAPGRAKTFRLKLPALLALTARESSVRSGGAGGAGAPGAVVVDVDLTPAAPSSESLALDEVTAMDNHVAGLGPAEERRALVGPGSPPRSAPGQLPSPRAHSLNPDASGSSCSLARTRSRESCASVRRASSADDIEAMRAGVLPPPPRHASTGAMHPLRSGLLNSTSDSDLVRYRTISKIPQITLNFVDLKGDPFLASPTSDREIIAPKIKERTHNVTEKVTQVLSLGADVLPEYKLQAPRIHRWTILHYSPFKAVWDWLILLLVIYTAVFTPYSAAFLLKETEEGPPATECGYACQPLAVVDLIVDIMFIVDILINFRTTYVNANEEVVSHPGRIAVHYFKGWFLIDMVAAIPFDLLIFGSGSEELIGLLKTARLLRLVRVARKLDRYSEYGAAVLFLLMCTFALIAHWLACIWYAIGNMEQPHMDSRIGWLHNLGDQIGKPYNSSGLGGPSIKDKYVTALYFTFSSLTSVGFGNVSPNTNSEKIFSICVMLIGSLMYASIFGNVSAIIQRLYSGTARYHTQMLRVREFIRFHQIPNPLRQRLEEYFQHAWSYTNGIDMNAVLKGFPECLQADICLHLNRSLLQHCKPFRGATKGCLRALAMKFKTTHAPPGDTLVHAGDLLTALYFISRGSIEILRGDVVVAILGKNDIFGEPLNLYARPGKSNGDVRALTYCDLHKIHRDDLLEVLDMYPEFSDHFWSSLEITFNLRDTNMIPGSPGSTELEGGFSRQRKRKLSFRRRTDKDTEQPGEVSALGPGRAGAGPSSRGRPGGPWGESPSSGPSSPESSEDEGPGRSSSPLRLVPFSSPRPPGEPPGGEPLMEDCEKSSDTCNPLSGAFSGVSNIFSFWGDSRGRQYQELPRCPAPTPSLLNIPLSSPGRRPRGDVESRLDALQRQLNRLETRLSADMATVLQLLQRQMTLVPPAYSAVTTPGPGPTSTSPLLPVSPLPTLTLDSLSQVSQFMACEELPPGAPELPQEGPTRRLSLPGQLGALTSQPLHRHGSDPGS

CN1CCN(CCCCN2C(=O)CN(/N=C/c3ccc(-c4ccc(Cl)cc4)o3)C2=O)CC1 [Azimilide]
IC50: 1910 nM
Ki: 954 nM
